The results in this text go back to PubChem BioAssay (NCI).

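Test compounds were applied to cells in 96-well plates for 48 hours at 5 doses. TGI marks complete inhibition of growth.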

What all share (experiment): NCI-60 cell line screen, 48 h
Assay [1] relates to HL-60(TB) leukemia.
For assay [2], the system named is SNB-75 CNS.
The subject of assay [3] is SK-MEL-5 melanoma.
Assay [4] deals with PC-3 prostate.
Assay [5] concerns MDA-N.
Assay [6] deals with ACHN renal.
For assay [7], the system named is OVCAR-5 ovarian.
Assay [8] has as its system UO-31 renal.
Assay [9] concerns EKVX NSCLC.
Assay [10] has as its system 786-0 renal.
Assay [11] deals with SR leukemia.
In assay [12] the test system is HOP-92 NSCLC.
The subject of assay [13] is BT-549 breast.

As for `CCOC(=O)C1(N)CC1`, the TGI in assay [1], in [2], in assay [3], in assay [4], in [5] and in [6] was greater than 100 µM each time. The TGI in assay [7], in assay [8], in assay [9], in assay [10], in [11] and in assay [12] was greater than 100 µM in each case.
Turning to `O=C1CC2CC(CC3(CO3)C2)C1F` (stereo not given), the TGI in assay [1], in [2], in [3], in assay [4], in assay [5] and in [6] was greater than 100 µM each time. Moreover, the TGI in assay [7], in assay [8], in assay [9], in assay [10], in [11] and in [12] was greater than 100 µM throughout.
As to `CN(/N=C\c1ccnc2ccccc12)c1ccccc1`, the TGI was found to be 39.2 µM in [1]; 94.9 µM in assay [2]; 31.2 µM in [3]; 95.8 µM in [6]; 45.6 µM in assay [7]; 54.4 µM in [8]. Moreover, the TGI in assay [9] was 91.2 µM; in [10], 37.7 µM; in assay [12] it was 50 µM.
On to `C#CCOCn1cc(C)c(=O)[nH]c1=O`, for which the TGI in assay [1], in assay [2], in assay [3], in [4], in assay [5] and in assay [6] was greater than 100 µM each time. In addition, the TGI in [7], in assay [8], in assay [9], in assay [10] and in [11] was greater than 100 µM in each case.
On to `CCCC(=O)OC[n+]1ccc(-c2c(COC(=O)NC(C)C)c(COC(=O)NC(C)C)c3n2CCC3)cc1`, for which the TGI in assay [1], in assay [2], in assay [13], in assay [3], in assay [4] and in assay [6] was greater than 100 µM throughout. The TGI in assay [7], in assay [8], in assay [9], in assay [10], in assay [11] and in assay [12] was greater than 100 µM throughout.
Turning to `O=C(CC1(O)C(=O)Nc2c(Cl)cc(Cl)cc21)c1ccc(F)cc1` (stereo not given), the TGI in assay [2] was 63.8 µM; in assay [6], greater than 100 µM; in assay [7], greater than 100 µM; in [8], greater than 100 µM; in assay [9], greater than 100 µM; in assay [10], 38.9 µM. Besides, the TGI in assay [11] was 57 µM; in [12], greater than 100 µM.
Take `CC(=O)NNc1nc(C)c(C(=O)/C=C/c2ccc(Cl)c(Cl)c2)s1`: the TGI in assay [1], in assay [2], in assay [3], in assay [6], in assay [7] and in assay [8] was greater than 100 µM throughout. Moreover, the TGI in assay [9], in assay [10] and in [12] was greater than 100 µM each time.
`COC(=O)C(c1ccc(OC)cc1)N1C(=O)[C@@H](NC(=O)c2ccccc2)[C@H]1[C@@H](C)O` (stereo not given in full): the TGI in assay [1], in [2], in assay [3], in assay [6], in assay [8] and in assay [9] was greater than 100 µM each time. The TGI in assay [10], in assay [11] and in [12] was greater than 100 µM throughout.
On to `CCCCCCCCCCCCC(Br)C(C)=O` (stereo not given), for which the TGI in assay [1], in [3], in [6], in [7], in assay [8] and in assay [9] was greater than 100 µM in each case. The TGI in [10] and in assay [12] was greater than 100 µM throughout.
Regarding `NC(=O)Cn1c(=O)oc2cc(C(=O)CN3CCOCC3)ccc21`, the TGI in assay [1], in assay [2], in assay [3], in assay [4], in [5] and in assay [7] was greater than 100 µM in each case. In addition, the TGI in assay [9], in assay [10] and in assay [11] was greater than 100 µM each time.
As for `CC1=C(C(=O)CC(=O)C(=O)Nc2ccc(C)c(C)c2)Sc2ccccc2N1`, the TGI in assay [2], in assay [3], in assay [6], in [7], in assay [8] and in assay [9] was greater than 100 µM throughout. For the same compound, the TGI in assay [10] and in assay [12] was greater than 100 µM throughout.
As to `COc1ccc(/C=C2\CCC(CCN3CCOCC3)C2=O)cc1` (stereo not given), the TGI in assay [1], in assay [2], in assay [3], in assay [6], in assay [7] and in assay [8] was greater than 100 µM in each case. Moreover, the TGI in [9], in assay [10], in assay [11] and in assay [12] was greater than 100 µM in each case.
In the case of `COC(=O)C(=O)C(/C(=N/N)C(=O)Nc1ccccc1C(N)=O)c1nc2ccc([N+](=O)[O-])cc2[nH]c1=O` (stereo not given), the TGI in assay [1], in assay [3], in assay [6], in assay [7], in assay [8] and in [9] was greater than 100 µM throughout. The TGI in assay [10] and in [11] was greater than 100 µM each time.
Take `Cc1nc2c3c(ccc2[nH]c1=O)C(=O)c1ccccc1C3=O`: the TGI in [1] was greater than 100 µM; in assay [2], 87 µM; in [3] it was greater than 100 µM; in assay [6], greater than 100 µM; in [7], greater than 100 µM; in assay [8] it was greater than 100 µM. For the same compound, the TGI in [9], in assay [10], in [11] and in assay [12] was greater than 100 µM throughout.
